# Data published in PubChem BioAssay (NCI).
#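 Where inhibition never reached the appropriate level, the endpoint shown equals the highest concentration tested. Otherwise, values were interpolated linearly from a five-concentration, 48-hour dose response in 96-well plates. GI50 = concentration required for 50% inhibition of growth. TGI: total growth inhibition.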
# How the values were obtained:
# Experiment in all cases: inhibition of tumour cell growth, NCI panel, 48 h
# 786-0 renal = tested on: 786-0 renal
# A498 renal = tested on: A498 renal
# A549 NSCLC = tested on: A549 NSCLC
# ACHN renal = tested on: ACHN renal
# BT-549 breast = tested on: BT-549 breast
# CAKI-1 renal = tested on: CAKI-1 renal
# CCRF-CEM leukemia = tested on: CCRF-CEM leukemia
# COLO 205 colon = tested on: COLO 205 colon
# DU-145 prostate = tested on: DU-145 prostate
# EKVX NSCLC = tested on: EKVX NSCLC
# HCC-2998 colon = tested on: HCC-2998 colon
# HCT-116 colon = tested on: HCT-116 colon
# HCT-15 colon = tested on: HCT-15 colon
# HL-60(TB) leukemia = tested on: HL-60(TB) leukemia
# HOP-62 NSCLC = tested on: HOP-62 NSCLC
# HOP-92 NSCLC = tested on: HOP-92 NSCLC
# HS 578T breast = tested on: HS 578T breast
# HT29 colon = tested on: HT29 colon
# IGROV1 ovarian = tested on: IGROV1 ovarian
# K-562 leukemia = tested on: K-562 leukemia
# KM12 colon = tested on: KM12 colon
# LOX IMVI melanoma = tested on: LOX IMVI melanoma
# M14 melanoma = tested on: M14 melanoma
# MALME-3M melanoma = tested on: MALME-3M melanoma
# MCF7 breast = tested on: MCF7 breast
# MDA-MB-231 breast = tested on: MDA-MB-231 breast
# MDA-MB-435 = tested on: MDA-MB-435
# MDA-MB-468 breast = tested on: MDA-MB-468 breast
# MOLT-4 leukemia = tested on: MOLT-4 leukemia
# NCI-H226 lung = tested on: NCI-H226 lung
# NCI-H23 lung = tested on: NCI-H23 lung
# NCI-H460 lung = tested on: NCI-H460 lung
# NCI-H522 lung = tested on: NCI-H522 lung
# OVCAR-3 ovarian = tested on: OVCAR-3 ovarian
# OVCAR-4 ovarian = tested on: OVCAR-4 ovarian
# OVCAR-5 ovarian = tested on: OVCAR-5 ovarian
# OVCAR-8 ovarian = tested on: OVCAR-8 ovarian
# PC-3 prostate = tested on: PC-3 prostate
# RPMI-8226 leukemia = tested on: RPMI-8226 leukemia
# RXF 393 renal = tested on: RXF 393 renal
# SF-268 CNS = tested on: SF-268 CNS
# SF-295 CNS = tested on: SF-295 CNS
# SF-539 CNS = tested on: SF-539 CNS
# SK-MEL-2 melanoma = tested on: SK-MEL-2 melanoma
# SK-MEL-28 melanoma = tested on: SK-MEL-28 melanoma
# SK-MEL-5 melanoma = tested on: SK-MEL-5 melanoma
# SK-OV-3 ovarian = tested on: SK-OV-3 ovarian
# SN12C renal = tested on: SN12C renal
# SNB-19 CNS = tested on: SNB-19 CNS
# SNB-75 CNS = tested on: SNB-75 CNS
# SR leukemia = tested on: SR leukemia
# SW-620 colon = tested on: SW-620 colon
# T-47D breast = tested on: T-47D breast
# TK-10 renal = tested on: TK-10 renal
# UACC-257 melanoma = tested on: UACC-257 melanoma
# UACC-62 melanoma = tested on: UACC-62 melanoma
# UO-31 renal = tested on: UO-31 renal
smiles,measurement,setting,value
CONC[C@]1(C)C=C2C(=O)[C@](C)(O)C3(CC3)C(C)=C2[C@H]1O,GI50,786-0 renal,1.65 µM
same,TGI,786-0 renal,6.9 µM
same,GI50,A498 renal,2.23 µM
same,TGI,A498 renal,5.39 µM
same,GI50,A549 NSCLC,0.324 µM
same,TGI,A549 NSCLC,11.3 µM
same,GI50,ACHN renal,0.233 µM
same,TGI,ACHN renal,0.565 µM
same,GI50,BT-549 breast,1.02 µM
same,TGI,BT-549 breast,4.67 µM
same,GI50,CAKI-1 renal,1.05 µM
same,TGI,CAKI-1 renal,18.8 µM
same,GI50,CCRF-CEM leukemia,0.57 µM
same,TGI,CCRF-CEM leukemia,6.66 µM
same,GI50,COLO 205 colon,1.48 µM
same,TGI,COLO 205 colon,3.21 µM
same,GI50,DU-145 prostate,0.436 µM
same,TGI,DU-145 prostate,16.5 µM
same,GI50,EKVX NSCLC,1.77 µM
same,TGI,EKVX NSCLC,4.85 µM
same,GI50,HCC-2998 colon,1.38 µM
same,TGI,HCC-2998 colon,3.4 µM
same,GI50,HCT-116 colon,0.298 µM
same,TGI,HCT-116 colon,46.4 µM
same,GI50,HCT-15 colon,0.384 µM
same,TGI,HCT-15 colon,> 100 µM
same,GI50,HL-60(TB) leukemia,0.485 µM
same,TGI,HL-60(TB) leukemia,6.44 µM
same,GI50,HOP-62 NSCLC,1.63 µM
same,TGI,HOP-62 NSCLC,4.55 µM
same,GI50,HOP-92 NSCLC,0.705 µM
same,TGI,HOP-92 NSCLC,4.32 µM
same,GI50,HS 578T breast,2.55 µM
same,TGI,HS 578T breast,7.26 µM
same,GI50,HT29 colon,0.42 µM
same,TGI,HT29 colon,6.66 µM
same,GI50,IGROV1 ovarian,1.6 µM
same,TGI,IGROV1 ovarian,8.01 µM
same,GI50,K-562 leukemia,0.661 µM
same,TGI,K-562 leukemia,> 100 µM
same,GI50,KM12 colon,2.32 µM
same,TGI,KM12 colon,15.4 µM
same,GI50,LOX IMVI melanoma,0.868 µM
same,TGI,LOX IMVI melanoma,6.63 µM
same,GI50,M14 melanoma,1.41 µM
same,TGI,M14 melanoma,4.87 µM
same,GI50,MALME-3M melanoma,1.05 µM
same,TGI,MALME-3M melanoma,2.49 µM
same,GI50,MCF7 breast,0.298 µM
same,TGI,MCF7 breast,5.34 µM
same,GI50,MDA-MB-231 breast,1.75 µM
same,TGI,MDA-MB-231 breast,5.88 µM
same,GI50,MDA-MB-435,1.84 µM
same,TGI,MDA-MB-435,3.9 µM
same,GI50,MDA-MB-468 breast,0.518 µM
same,TGI,MDA-MB-468 breast,1.97 µM
same,GI50,MOLT-4 leukemia,0.688 µM
same,TGI,MOLT-4 leukemia,> 100 µM
same,GI50,NCI-H226 lung,2.95 µM
same,TGI,NCI-H226 lung,9.13 µM
same,GI50,NCI-H23 lung,0.422 µM
same,TGI,NCI-H23 lung,1.89 µM
same,GI50,NCI-H460 lung,0.353 µM
same,TGI,NCI-H460 lung,11 µM
same,GI50,NCI-H522 lung,0.314 µM
same,TGI,NCI-H522 lung,1.47 µM
same,GI50,OVCAR-3 ovarian,2.66 µM
same,TGI,OVCAR-3 ovarian,7.96 µM
same,GI50,OVCAR-4 ovarian,2.9 µM
same,TGI,OVCAR-4 ovarian,9.09 µM
same,GI50,OVCAR-5 ovarian,0.346 µM
same,TGI,OVCAR-5 ovarian,5.65 µM
same,GI50,OVCAR-8 ovarian,1.44 µM
same,TGI,OVCAR-8 ovarian,4.35 µM
same,GI50,PC-3 prostate,0.754 µM
same,TGI,PC-3 prostate,6.12 µM
same,GI50,RPMI-8226 leukemia,9.67 µM
same,TGI,RPMI-8226 leukemia,> 100 µM
same,GI50,RXF 393 renal,0.41 µM
same,TGI,RXF 393 renal,1.65 µM
same,GI50,SF-268 CNS,1.07 µM
same,TGI,SF-268 CNS,12.8 µM
same,GI50,SF-295 CNS,0.345 µM
same,TGI,SF-295 CNS,42.4 µM
same,GI50,SF-539 CNS,1.28 µM
same,TGI,SF-539 CNS,2.79 µM
same,GI50,SK-MEL-2 melanoma,0.858 µM
same,TGI,SK-MEL-2 melanoma,2.25 µM
same,GI50,SK-MEL-28 melanoma,1.81 µM
same,TGI,SK-MEL-28 melanoma,3.78 µM
same,GI50,SK-MEL-5 melanoma,1.05 µM
same,TGI,SK-MEL-5 melanoma,4.95 µM
same,GI50,SK-OV-3 ovarian,1.31 µM
same,TGI,SK-OV-3 ovarian,4.83 µM
same,GI50,SN12C renal,2.33 µM
same,TGI,SN12C renal,9.36 µM
same,GI50,SNB-19 CNS,2.12 µM
same,TGI,SNB-19 CNS,7.58 µM
same,GI50,SNB-75 CNS,1.76 µM
same,TGI,SNB-75 CNS,3.8 µM
same,GI50,SR leukemia,0.65 µM
same,TGI,SR leukemia,> 100 µM
same,GI50,SW-620 colon,1.78 µM
same,TGI,SW-620 colon,> 100 µM
same,GI50,T-47D breast,2.05 µM
same,TGI,T-47D breast,7.89 µM
same,GI50,TK-10 renal,3.32 µM
same,TGI,TK-10 renal,19.2 µM
same,GI50,UACC-257 melanoma,1.72 µM
same,TGI,UACC-257 melanoma,4.62 µM
same,GI50,UACC-62 melanoma,1.55 µM
same,TGI,UACC-62 melanoma,3.01 µM
same,GI50,UO-31 renal,1.27 µM
same,TGI,UO-31 renal,4.39 µM
